Assay results published in ChEMBL document CHEMBL1201862, “PubChem BioAssay data set” (2004).
Activity calls are given as the source filed them. For most assays here, no stated cut-off is given here; in the data, actives have a measured EC50 and inactives only a lower limit.

Key:
HEK293 = experiment: cells; type: functional, cell-based; details: Homo sapiens
[1] = biological target: T1, Acyl-homoserine lactone acylase PvdQ (Pseudomonas aeruginosa (strain LESB58), UniProt Q9I194); experiment: P. aeruginosa PvdQ acylase inhibitors, dose response, biochemical, fluorescence, plate reader and imaging, cherry-picks (AID 493231)
T1 sequence (Q9I194 whole entry): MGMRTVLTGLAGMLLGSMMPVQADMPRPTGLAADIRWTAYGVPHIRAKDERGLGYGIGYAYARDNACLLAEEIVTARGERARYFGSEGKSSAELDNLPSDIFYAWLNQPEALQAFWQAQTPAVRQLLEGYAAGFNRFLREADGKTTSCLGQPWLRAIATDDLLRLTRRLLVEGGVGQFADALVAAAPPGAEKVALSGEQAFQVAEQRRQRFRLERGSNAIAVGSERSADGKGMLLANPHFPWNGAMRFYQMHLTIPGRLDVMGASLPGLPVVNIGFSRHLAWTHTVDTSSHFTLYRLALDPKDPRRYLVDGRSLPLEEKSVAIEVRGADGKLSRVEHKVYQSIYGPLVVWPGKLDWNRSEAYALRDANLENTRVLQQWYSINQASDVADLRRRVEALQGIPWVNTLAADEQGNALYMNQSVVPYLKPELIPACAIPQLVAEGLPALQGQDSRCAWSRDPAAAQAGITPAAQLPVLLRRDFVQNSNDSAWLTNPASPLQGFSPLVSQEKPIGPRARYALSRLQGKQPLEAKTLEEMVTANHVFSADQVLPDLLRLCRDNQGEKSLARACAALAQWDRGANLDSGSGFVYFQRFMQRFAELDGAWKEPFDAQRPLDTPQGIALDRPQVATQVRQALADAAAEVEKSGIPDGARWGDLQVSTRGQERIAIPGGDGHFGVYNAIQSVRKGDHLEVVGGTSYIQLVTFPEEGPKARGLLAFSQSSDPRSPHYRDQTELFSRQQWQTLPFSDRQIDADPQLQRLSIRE

[2] = biological target: T2, Rac GTPase-activating protein 1 (Homo sapiens, UniProt Q9H0H5); experiment: MgcRacGAP GTPase-activating activity inhibitors, confirmation, biochemical, ADP Hunter fluorescence, primary and confirmatory (AID 624330); type: functional
T2 sequence (Q9H0H5 whole entry): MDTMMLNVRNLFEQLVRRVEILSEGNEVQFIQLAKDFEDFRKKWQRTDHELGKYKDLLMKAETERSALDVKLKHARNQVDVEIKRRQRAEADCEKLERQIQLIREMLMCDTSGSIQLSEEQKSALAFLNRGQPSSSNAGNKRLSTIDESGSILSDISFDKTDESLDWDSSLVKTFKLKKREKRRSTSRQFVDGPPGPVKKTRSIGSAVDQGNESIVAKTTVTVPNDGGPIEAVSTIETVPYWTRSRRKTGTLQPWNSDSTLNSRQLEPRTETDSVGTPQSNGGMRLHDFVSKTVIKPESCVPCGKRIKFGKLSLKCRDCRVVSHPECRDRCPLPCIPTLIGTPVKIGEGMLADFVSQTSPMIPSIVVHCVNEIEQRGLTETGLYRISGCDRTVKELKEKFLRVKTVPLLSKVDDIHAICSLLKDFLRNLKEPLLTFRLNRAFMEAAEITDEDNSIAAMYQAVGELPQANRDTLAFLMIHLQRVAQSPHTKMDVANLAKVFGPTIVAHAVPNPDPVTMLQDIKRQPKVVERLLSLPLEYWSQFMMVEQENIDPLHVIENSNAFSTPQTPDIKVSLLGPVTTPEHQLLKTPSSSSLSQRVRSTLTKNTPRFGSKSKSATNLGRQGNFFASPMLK

[3] = biological target: Nuclear receptor subfamily 0 group B member 1 (Homo sapiens, UniProt P51843); experiment: Luminescence-based cell-based high throughput dose response assay for inhibitors of the orphan nuclear receptor subfamily 0, group B, member 1 (DAX1; NR0B1). [Related pubchem assays (depositor defined):AID504766, AID504790]; type: functional
Sequence of Nuclear receptor subfamily 0 group B member 1 (P51843 whole entry): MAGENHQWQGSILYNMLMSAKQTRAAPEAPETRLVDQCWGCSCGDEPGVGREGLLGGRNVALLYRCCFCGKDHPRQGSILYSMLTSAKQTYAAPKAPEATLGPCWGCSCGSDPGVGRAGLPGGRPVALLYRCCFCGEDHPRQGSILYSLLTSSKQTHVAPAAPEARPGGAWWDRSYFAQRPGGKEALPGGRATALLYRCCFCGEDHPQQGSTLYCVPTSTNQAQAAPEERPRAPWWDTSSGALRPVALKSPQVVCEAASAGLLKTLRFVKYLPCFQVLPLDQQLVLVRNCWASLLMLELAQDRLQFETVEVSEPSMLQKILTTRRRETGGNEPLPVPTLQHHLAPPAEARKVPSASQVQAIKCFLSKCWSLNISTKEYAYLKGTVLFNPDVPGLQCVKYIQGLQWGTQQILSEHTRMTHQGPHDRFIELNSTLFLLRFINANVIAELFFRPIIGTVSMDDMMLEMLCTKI

[4] = Luminescence Cell-Based Dose Response to Identify Activators of Luciferase Translation or Activity in H4-C Neuroglioblastoma Cells. [Related pubchem assays: 1829 (Project Summary), 1814 (Primary HTS)]; type: functional
Vero = Vero cell cytotoxicity, cytotoxicity control for flavivirus capping enzyme inhibitors (AID 588742); type: functional; details: Chlorocebus sabaeus
[5] = Luminescence Cell-Based Dose Confirmation HTS to Identify Activators of 5'UTR Stem-Loop Driven Alpha-Synuclein mRNA Translation in H4 Neuroglioblastoma Cells. [Related pubchem assays: 1829 (Project Summary), 1814 (Primary HTS)]; type: functional
H4 = experiment: Luminescence Cell-Based Dose Response HTS to Identify Activators of 5'UTR Stem-Loop Driven Prion Protein mRNA Translation in H4 Neuroglioblastoma Cells. [Related pubchem assays: 1829 (Project Summary), 1814 (Primary HTS)]; type: functional; details: Homo sapiens
[6] = Luminescence Cell-Based Dose Response HTS to Identify Activators of Luciferase Translation or Activity in H4 […] Cells. [Related pubchem assays: 1829 (Project Summary), 1814 (Primary HTS)]; type: functional
Genome polyprotein = Genome polyprotein (dengue virus type 2, UniProt P29990); experiment: Dengue-2 NS5 methyltransferase inhibitors, primary screen, biochemical, confirmation dose response (AID 588689); type: functional
Sequence of Genome polyprotein (P29990 2492-3391 limits assumed): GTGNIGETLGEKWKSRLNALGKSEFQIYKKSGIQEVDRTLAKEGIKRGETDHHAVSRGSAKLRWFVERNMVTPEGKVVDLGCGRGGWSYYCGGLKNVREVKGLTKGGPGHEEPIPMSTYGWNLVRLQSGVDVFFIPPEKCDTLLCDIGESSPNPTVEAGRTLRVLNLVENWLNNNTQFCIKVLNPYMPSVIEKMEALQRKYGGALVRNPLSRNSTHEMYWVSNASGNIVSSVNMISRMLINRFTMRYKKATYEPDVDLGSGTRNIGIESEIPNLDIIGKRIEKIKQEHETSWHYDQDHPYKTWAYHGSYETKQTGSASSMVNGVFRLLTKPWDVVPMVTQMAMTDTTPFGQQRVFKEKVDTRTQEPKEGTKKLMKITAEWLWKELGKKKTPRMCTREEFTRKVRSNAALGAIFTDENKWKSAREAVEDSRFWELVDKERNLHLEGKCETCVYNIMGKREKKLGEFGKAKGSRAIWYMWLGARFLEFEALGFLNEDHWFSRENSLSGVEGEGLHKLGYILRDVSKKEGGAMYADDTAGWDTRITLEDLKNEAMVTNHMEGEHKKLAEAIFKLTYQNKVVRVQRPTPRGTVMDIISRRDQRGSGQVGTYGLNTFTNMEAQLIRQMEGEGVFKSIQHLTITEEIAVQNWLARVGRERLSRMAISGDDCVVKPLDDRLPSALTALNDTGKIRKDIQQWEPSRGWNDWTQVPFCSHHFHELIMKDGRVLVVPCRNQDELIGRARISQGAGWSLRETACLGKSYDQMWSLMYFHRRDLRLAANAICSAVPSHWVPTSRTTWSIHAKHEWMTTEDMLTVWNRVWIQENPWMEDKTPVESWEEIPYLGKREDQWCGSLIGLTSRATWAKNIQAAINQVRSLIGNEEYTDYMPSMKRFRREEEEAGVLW

[7] = Luminescence Cell-Based Dose Confirmation to Identify Activators of 5'UTR Stem-Loop Driven Alpha-Synuclein mRNA Translation in H4 Neuroglioblastoma Cells. [Related pubchem assays: 1829 (Project Summary), 1814 (Primary HTS)]; type: functional
[8] = Luminescence Cell-Based Dose Response to Identify Activators of 5'UTR Stem-Loop Driven Prion Protein mRNA Translation in H4-C Neuroglioblastoma Cells. [Related pubchem assays: 1829 (Project Summary), 1814 (Primary HTS)]; type: functional
[9] = tested on: Streptococcus sp. 'group A'; experiment: growth inhibition of control SK(-) GAS strain, dose response, counter-screen for streptokinase expression inhibitor project, luminescence, kanamycin, BacTiterGlo, confirmation (AID 1900); type: functional, organism-based
[10] = biological target: T3, Calpain-2 catalytic subunit (Sus scrofa, UniProt P43367); experiment: pig calpain II inhibitor potency, dose response, biochemical, fluorogenic peptide substrate (AID 1420); type: functional
T3 sequence (P43367 whole entry): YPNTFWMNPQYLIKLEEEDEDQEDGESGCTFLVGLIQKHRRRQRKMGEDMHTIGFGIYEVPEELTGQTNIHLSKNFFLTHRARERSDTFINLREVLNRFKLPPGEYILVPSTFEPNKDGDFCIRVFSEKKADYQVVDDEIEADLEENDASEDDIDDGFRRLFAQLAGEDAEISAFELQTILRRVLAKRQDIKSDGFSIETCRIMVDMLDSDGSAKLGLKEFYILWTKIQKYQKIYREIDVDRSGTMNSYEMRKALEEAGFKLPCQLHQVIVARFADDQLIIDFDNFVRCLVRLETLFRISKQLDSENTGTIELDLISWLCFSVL

Streptococcus = experiment: Group A Streptococcus viability loss, dose response, counter-screen for streptokinase expression inhibitor project, luminescence, BacTiterGlo (AID 1915); type: functional, organism-based;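 further: potency for reduction of bacterial viability or growth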
[11] = biological target: Heat shock protein HSP 90-alpha (Homo sapiens, UniProt P07900); type: functional, organism-based
[12] = biological target: ATP-dependent molecular chaperone HSP82 (Candida albicans (strain WO-1) (Yeast), UniProt C4YTQ8); experiment: loss of DOC-induced GRE-beta-galactosidase reporter signal, dose response, Hsp90 inhibitor project, S. cerevisiae, luminescence (AID 2400); type: functional, cell-based;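 further: beta-galactosidase luminescence from glucocorticoid response element reporter as proxy for Hsp90 function; inhibitor potency where signal loss means Hsp90 inhibition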
Sequence of ATP-dependent molecular chaperone HSP82 (C4YTQ8 whole entry): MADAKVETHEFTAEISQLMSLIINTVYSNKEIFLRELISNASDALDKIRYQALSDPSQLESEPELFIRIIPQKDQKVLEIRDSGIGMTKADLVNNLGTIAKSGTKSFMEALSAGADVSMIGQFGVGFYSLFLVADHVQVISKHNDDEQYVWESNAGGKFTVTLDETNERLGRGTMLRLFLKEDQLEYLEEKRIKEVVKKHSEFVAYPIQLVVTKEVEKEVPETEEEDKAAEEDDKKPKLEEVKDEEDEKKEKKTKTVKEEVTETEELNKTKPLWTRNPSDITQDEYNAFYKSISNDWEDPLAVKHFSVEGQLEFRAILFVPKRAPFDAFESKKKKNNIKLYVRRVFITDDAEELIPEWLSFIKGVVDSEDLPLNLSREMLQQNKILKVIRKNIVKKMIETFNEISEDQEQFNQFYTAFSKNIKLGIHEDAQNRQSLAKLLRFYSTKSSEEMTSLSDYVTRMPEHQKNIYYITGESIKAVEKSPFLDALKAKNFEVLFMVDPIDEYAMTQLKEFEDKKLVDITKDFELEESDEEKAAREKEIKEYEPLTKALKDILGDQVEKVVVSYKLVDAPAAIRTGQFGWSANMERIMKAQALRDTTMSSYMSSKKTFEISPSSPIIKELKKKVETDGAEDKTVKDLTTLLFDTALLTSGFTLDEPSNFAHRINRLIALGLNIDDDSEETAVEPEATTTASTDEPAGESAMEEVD

[13] = biological target: Serine/threonine-protein phosphatase (Candida dubliniensis (strain CD36 / CBS 7987 / NCPF 3949 / NRRLY-17841) (Yeast), UniProt B9W6M3); experiment: calcineurin pathway inhibitors in yeast reporter, dose response, S. cerevisiae, CDRE-lacZ, luminescence, secondary (AID 2388); type: functional, cell-based;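 further: yeast reporter cells carrying a calcineurin-responsive lacZ construct stimulated with calcium chloride; luminescent beta-galactosidase reporter signal in whole cells rather than isolated phosphatase activity; potency for inhibition where a drop in reporter signal means calcineurin blockade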
Sequence of Serine/threonine-protein phosphatase (B9W6M3 whole entry): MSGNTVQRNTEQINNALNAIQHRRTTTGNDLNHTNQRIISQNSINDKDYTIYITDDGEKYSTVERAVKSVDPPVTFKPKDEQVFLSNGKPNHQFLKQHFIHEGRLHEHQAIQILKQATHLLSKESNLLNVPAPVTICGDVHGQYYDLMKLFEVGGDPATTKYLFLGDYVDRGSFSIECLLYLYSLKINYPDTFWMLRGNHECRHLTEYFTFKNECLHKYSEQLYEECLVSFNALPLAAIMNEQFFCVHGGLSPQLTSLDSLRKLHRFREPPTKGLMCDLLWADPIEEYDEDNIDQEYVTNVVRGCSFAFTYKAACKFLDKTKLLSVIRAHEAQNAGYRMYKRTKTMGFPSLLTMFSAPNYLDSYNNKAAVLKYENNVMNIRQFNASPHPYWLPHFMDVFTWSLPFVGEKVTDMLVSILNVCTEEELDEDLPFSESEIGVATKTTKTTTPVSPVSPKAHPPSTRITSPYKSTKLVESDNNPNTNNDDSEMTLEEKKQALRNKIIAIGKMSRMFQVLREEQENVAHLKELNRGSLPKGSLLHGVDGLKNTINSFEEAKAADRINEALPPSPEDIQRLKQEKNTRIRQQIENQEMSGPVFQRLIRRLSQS

[14] = NIH-3T3 fibroblast cytotoxicity, dose response, cytotoxicity control, cell-based, fluorescence, Alamar Blue, secondary assay (AID 2327); type: functional;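 further: NIH-3T3 mouse fibroblasts cultured with fluconazole at 8 µg/mL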
[15] = C. albicans growth with fluconazole, confirmation, fluorescence, retest (AID 2467); type: functional, cell-based
Hexokinase-1 = Hexokinase-1 (Homo sapiens, UniProt P19367); experiment: SAR analysis of small molecule inhibitors of hexokinase domain containing I (HKDC1) in the hexokinase 1 selectivity assay. [Related pubchem assays (depositor defined):AID493160, AID493190]; type: functional
Sequence of Hexokinase-1 (P19367 whole entry, the tested form may be a part): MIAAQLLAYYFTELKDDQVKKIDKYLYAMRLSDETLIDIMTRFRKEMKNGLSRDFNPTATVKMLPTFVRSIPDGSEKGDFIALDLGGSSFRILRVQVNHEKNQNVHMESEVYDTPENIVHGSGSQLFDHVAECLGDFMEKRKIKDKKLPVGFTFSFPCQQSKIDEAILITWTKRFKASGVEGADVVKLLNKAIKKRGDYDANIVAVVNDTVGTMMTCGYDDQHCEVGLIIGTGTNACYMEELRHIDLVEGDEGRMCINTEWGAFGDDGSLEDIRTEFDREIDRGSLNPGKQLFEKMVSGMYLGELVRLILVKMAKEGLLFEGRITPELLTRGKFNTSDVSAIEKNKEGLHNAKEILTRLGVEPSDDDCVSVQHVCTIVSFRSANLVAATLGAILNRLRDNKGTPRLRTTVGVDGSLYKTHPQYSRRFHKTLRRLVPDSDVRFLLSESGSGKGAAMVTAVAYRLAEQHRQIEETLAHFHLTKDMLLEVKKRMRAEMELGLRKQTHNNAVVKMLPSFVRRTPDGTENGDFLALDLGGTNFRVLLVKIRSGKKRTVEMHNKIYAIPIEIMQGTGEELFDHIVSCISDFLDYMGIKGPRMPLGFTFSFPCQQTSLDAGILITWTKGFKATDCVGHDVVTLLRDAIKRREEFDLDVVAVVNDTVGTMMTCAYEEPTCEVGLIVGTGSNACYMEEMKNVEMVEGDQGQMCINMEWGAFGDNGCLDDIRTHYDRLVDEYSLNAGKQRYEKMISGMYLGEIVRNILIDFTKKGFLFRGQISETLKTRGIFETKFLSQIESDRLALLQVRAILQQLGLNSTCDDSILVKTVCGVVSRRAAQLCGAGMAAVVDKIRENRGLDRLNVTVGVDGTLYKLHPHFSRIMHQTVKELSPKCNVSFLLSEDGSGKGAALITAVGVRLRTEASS

Hexokinase HKDC1 = biological target: T4, Hexokinase HKDC1 (Homo sapiens, UniProt Q2TB90); experiment: SAR analysis of small molecule inhibitors of hexokinase domain containing I (HKDC1). [Related pubchem assays (depositor defined):AID493160, AID493190]; type: functional
T4 sequence (Q2TB90 whole entry): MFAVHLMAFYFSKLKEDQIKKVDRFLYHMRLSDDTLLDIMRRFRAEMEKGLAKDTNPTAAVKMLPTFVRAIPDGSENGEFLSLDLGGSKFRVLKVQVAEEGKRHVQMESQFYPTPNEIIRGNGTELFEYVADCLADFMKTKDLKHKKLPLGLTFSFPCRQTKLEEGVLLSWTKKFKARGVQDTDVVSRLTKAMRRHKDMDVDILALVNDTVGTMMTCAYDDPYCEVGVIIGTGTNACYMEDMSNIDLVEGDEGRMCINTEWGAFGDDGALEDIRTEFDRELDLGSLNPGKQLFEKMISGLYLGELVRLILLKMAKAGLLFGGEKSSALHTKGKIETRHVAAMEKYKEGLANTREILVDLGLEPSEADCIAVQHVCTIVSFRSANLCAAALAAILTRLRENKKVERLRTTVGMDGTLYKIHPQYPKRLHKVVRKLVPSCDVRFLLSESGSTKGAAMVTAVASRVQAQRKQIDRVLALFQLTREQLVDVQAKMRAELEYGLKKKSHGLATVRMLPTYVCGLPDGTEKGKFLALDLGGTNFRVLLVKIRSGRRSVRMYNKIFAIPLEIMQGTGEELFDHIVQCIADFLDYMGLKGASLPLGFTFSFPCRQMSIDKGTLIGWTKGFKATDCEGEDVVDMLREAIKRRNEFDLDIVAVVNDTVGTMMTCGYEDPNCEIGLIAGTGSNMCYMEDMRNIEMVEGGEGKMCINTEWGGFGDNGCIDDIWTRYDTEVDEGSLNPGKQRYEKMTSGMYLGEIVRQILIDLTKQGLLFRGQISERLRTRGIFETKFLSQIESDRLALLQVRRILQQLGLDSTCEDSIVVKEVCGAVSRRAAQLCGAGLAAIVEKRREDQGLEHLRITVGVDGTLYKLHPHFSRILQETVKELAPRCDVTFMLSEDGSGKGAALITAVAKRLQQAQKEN

## CCOc1ccc(CNC2CCCc3ccccc32)cc1 (stereo not given)
HEK293
  IC50: > 67.5 µM (inactive)
[1]
  AC50: 12.3 µM (active)
[2]
  IC50: 202 µM (active)
[3]
  IC50: > 67.5 µM (inactive)

## Cc1ccc(-c2nn(-c3ccccc3)cc2C=C2C(=O)CC(C)(C)CC2=O)cc1
[4]
  EC50: 1.35 µM (active)
Vero
  CC50: 19.1 µM (active)
[5]
  EC50: > 120 µM (not active)
H4
  EC50: > 120 µM (not active)
[6]
  EC50: 0.454 µM (active)
Genome polyprotein
  IC50: 44.8 µM (active)
[7]
  EC50: 0.555 µM (active)
[8]
  EC50: > 12 µM (not active)

## O=[N+]([O-])c1cc(Cl)c(O)c2ncccc12
[9]
  EC50: 1.33 µM (active)
[10]
  IC50: > 50 µM (not active)
Streptococcus
  EC50: 5.77 µM (active)
[11]
  AC50: 1.86 µM (active)
[12]
  EC50: 1.48 µM (active)
[13]
  EC50: > 180 µM (inactive)
[14]
  EC50: 15.5 µM (active)
[15]
  EC50: 0.055 µM (active)

## CSc1ccc(-c2sc(Nc3cccc4ccccc34)n[n+]2-c2ccccc2)cc1
Vero
  CC50: > 40 µM (active)
Genome polyprotein
  IC50: 44.5 µM (active)

## Cc1cc2nnc(SCC(=O)Nc3ccccc3)n2c2ccccc12
Hexokinase-1
  IC50: > 80 µM (inactive)
Hexokinase HKDC1
  IC50: > 80 µM (inactive)

## Clc1ccc2c(c1)C(c1cccs1)=NNC(c1cccnc1)=N2
[12]
  EC50: > 150 µM (inactive)
[13]
  EC50: > 180 µM (inactive)
[14]
  EC50: > 150 µM (inactive)
[15]
  EC50: 0.101 µM (active)

## O=C(Nc1nnc(SCc2ccccc2)s1)c1ccc2[nH]cnc2c1
Hexokinase-1
  IC50: > 80 µM (inactive)
Hexokinase HKDC1
  IC50: > 80 µM (inactive)
